Experimental findings from patent publication US20250163043A1 (TRANSTHERA SCIENCES (NANJING), INC., priority 2021, published 2025) are described below.

A value given as a limit tells only on which side of the number the result lay.

Assay [1] concerns the target CDK5/p25NCK (Homo sapiens, UniProt Q00535). Put plainly: ADP-Glo kinase assay on CDK enzymatic activity, CDK5/p25NCK. Type of assay: biochemical. As to conditions: 10 concentrations from 10 μM, 4-fold, 60 min room temperature. A digest of the protocol: (§1)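 Compounds were tested as 10-point, 4-fold dilutions from 10 μM final, preincubated 10 min at room temperature with kinase, then reacted 60 min with CDK tide substrate and ATP. ADP formed was detected by ADP-Glo luminescence; inhibition was normalised to 1 μM AZD4573 and 0.5% DMSO controls and IC50 fitted.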

Assay [2] deals with CDK9/CycT1 (Homo sapiens, UniProt P50750). Nature of the assay: ADP-Glo kinase assay on CDK enzymatic activity, CDK9/CycT1. The assay is classed as biochemical. The following applies: 10 concentrations from 10 μM, 4-fold, 60 min room temperature. A digest of the protocol: as §1
Chain of CDK9/CycT1 (P50750 whole entry): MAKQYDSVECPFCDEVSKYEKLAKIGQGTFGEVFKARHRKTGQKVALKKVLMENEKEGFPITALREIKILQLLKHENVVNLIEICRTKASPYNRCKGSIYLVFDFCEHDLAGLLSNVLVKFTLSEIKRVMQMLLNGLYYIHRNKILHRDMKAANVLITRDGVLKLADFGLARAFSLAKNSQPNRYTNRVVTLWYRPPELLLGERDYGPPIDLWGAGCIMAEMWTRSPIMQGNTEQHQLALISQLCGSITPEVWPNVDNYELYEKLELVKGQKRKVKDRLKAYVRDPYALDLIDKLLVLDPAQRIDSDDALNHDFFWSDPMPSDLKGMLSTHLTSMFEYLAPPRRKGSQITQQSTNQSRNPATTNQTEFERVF
Chain of CDK9/CycT1 (O60563 whole entry partner): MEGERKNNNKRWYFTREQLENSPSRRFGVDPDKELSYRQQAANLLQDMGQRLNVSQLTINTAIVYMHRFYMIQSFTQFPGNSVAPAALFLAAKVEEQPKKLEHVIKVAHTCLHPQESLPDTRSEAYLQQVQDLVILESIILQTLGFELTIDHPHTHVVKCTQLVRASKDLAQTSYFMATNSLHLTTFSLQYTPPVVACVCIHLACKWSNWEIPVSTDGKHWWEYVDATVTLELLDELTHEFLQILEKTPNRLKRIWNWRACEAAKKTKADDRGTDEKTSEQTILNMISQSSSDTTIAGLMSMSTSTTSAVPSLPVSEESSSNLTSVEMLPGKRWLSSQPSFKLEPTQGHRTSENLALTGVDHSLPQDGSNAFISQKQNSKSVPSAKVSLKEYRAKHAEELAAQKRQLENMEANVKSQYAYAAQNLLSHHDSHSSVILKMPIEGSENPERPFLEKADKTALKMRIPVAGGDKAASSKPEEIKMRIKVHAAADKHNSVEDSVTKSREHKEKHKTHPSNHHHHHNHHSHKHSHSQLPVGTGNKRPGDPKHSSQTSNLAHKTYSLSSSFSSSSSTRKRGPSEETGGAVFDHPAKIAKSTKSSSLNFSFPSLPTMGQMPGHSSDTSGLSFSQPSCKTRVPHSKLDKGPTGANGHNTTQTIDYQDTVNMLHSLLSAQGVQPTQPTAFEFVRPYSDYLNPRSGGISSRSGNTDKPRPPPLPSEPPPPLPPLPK
(In ADP-Glo the light output rises with the ADP produced.)

Assay [3] deals with CDK3/CycE1 (Homo sapiens, UniProt Q00526). Put plainly: ADP-Glo kinase assay on CDK enzymatic activity, CDK3/CycE1. As to conditions: 10 concentrations from 10 μM, 4-fold, 60 min room temperature. The assay is classed as biochemical. A digest of the protocol:
as §1

The target in assay [4] is CDK2/CycA2 (Homo sapiens, UniProt P24941). Put plainly: ADP-Glo kinase assay on CDK enzymatic activity, CDK2/CycA2. The assay is classed as biochemical. As to conditions: 10 concentrations from 10 μM, 4-fold, 60 min room temperature. The method in brief:
as §1

Assay [5] has as its system MV-4-11 (human myelomonocytic leukemia cells). Nature of the assay: CCK-8 cell proliferation assay, MV-4-11. Type of assay: cell-based. The following applies: MV4-11, 24 h incubation, 11 concentrations from 5000 nM, 3-fold, read-out: MV-4-11 cell proliferation IC50 (class). How it is done:
Test samples: the compounds of the present invention, having structures shown above.
MV-4-11 (human myelomonocytic leukemia cells) and NCI-H929 (human myeloma cells).
The compounds were dissolved in DMSO and diluted 3-fold in the 96-well plate to obtain stock solutions with 11 concentration gradients. Each cell was inoculated into a 96-well plate, and the diluted compound stock solution was added to the 96-well plate to obtain a series of 11 concentration gradients of compound solutions with final concentrations of 5000 nM starting and 3-fold gradient decreasing, wherein the final DMSO content was […]. There was a medium containing 1‰ DMSO in the negative control well. The treated cells were incubated at 37° C. with 5% CO2 and 95% humidity, wherein MV-4-11 were incubated for 24 h and NCI-H929 for 72 h. After incubation was completed, each well was added with 10 μL of CCK-8 reagent, incubated for 1-3 h at room temperature and placed in the microplate reader, and the absorbance was read at 450 nm.
The inhibition rate was calculated according to the following formula: […]
ODcmpd: compound absorbance; ODpositive: average value of the absorbance of positive control without compound; ODvehicle: average value of the absorbance of solvent vehicle control.
IC50 values were fitted using GraphPad 7.0 based on inhibition rates of compounds at different concentrations.
For orientation: Formazan colour is commonly taken as a measure of viable cells.

The target of assay [6] is CDK1/CycE1 (Homo sapiens, UniProt P06493). Nature of the assay: ADP-Glo kinase assay on CDK enzymatic activity, CDK1/CycE1. The assay is classed as biochemical. As to conditions: ADP-Glo; 10 concentrations from 10 μM, 4-fold; 60 min room temperature; read-out: CDK1/CycE1/nM (IC50). A digest of the protocol: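 Compounds in 10-point 4-fold dilutions from 10 μM final, preincubated 10 min with kinase, then substrate/ATP added; 60 min reaction at room temperature. ADP-Glo luminescence read.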
Chain of CDK1/CycE1 (P06493 whole entry, species assumed): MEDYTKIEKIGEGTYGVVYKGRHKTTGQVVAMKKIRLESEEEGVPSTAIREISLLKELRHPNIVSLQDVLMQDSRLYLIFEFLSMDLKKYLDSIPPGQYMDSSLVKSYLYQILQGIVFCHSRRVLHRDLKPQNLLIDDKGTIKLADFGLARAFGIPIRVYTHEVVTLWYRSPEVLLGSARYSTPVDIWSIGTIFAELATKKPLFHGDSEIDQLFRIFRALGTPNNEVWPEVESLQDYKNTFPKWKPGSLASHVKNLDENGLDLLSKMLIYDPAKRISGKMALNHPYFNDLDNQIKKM
Chain of CDK1/CycE1 (P24864 whole entry partner, species assumed): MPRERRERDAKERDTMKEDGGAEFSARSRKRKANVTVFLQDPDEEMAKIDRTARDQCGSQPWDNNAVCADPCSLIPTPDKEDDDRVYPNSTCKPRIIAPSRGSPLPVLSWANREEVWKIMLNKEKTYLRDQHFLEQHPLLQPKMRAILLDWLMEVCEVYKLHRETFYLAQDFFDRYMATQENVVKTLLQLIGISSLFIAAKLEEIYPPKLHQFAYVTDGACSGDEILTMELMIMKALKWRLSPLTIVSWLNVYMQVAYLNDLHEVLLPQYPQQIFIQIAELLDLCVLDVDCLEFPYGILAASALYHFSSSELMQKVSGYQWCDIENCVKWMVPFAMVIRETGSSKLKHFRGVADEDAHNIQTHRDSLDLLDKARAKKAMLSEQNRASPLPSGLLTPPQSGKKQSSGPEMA

Chain of CDK5/p25NCK (Q00535 whole entry, species assumed): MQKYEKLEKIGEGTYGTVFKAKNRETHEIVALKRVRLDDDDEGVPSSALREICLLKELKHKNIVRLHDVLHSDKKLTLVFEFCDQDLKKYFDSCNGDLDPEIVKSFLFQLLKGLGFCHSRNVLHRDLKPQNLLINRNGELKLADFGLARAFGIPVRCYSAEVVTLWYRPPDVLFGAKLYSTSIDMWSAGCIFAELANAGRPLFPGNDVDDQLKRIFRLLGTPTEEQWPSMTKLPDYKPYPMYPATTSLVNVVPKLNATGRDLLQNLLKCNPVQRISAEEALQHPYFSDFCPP
Chain of CDK5/p25NCK (Q15078 99-307 partner limits assumed, species assumed): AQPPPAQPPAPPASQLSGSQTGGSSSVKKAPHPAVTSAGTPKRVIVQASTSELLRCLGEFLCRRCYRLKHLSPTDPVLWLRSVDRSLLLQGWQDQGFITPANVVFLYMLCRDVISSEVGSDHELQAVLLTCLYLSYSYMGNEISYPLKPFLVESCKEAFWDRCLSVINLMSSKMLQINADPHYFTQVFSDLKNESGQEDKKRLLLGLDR
Chain of CDK3/CycE1 (Q00526 whole entry, species assumed): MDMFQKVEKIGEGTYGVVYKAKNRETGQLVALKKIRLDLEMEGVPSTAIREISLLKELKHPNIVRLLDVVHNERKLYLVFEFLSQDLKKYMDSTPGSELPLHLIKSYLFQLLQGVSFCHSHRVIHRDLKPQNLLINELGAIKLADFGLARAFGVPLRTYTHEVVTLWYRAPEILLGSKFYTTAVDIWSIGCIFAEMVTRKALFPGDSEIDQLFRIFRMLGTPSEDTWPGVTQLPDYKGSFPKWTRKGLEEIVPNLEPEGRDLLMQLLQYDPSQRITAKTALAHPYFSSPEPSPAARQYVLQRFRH
Chain of CDK3/CycE1 (P24864 whole entry partner, species assumed): as the sequence (P24864 whole entry partner, species assumed) above

In the case of `CC(=O)N[C@@H]1CCC[C@H](C(=O)Nc2cc3c(NC(C)(C)C)nc(C#N)cc3cn2)C1` [Compound 15, (1S,3R)-3-acetamido-N-(5-(tert-butylamino)-7-cyano-2,6-naphthyridin-3-yl)cyclohexane-1-carboxamide], the IC50 in assay [1] is 770 nM; in assay [2], 1 nM; in assay [3] it was 273 nM; in assay [4], 182 nM; in assay [5], 400 to 1000 nM.

For the compound `CC(=O)N[C@@H]1CCC[C@H](C(=O)Nc2cc3c(NC4CC4)nc(C#N)cc3cn2)C1` [Compound 16, (1S,3R)-3-acetamido-N-(7-cyano-5-(cyclopropylamino)-2,6-naphthyridin-3-yl)cyclohexane-1-carboxamide], the IC50 in assay [1] is 2500 nM; in assay [2], 20 nM; in assay [3], 951 nM; in assay [4], 1460 nM; in assay [5], above 1000 nM.

With `CC(=O)N[C@@H]1CCC[C@H](C(=O)Nc2cc3c(NC4(C)CC4)nc(C#N)cc3cn2)C1` [Compound 17, (1S,3R)-3-acetamido-N-(7-cyano-5-((1-methylcyclopropyl)amino)-2,6-naphthyridin-3-yl)cyclohexane-1-carboxamide], the IC50 is 664 nM in assay [1]; 4 nM in assay [2]; 750 nM in assay [3]; 279 nM in assay [4]; 400 to 1000 nM in assay [5].

For `CC(=O)N[C@@H]1CCC[C@H](C(=O)Nc2cc3c(NC(CCO)CCO)nc(C#N)cc3cn2)C1` [Compound 18, (1S,3R)-3-acetamido-N-(7-cyano-5-((1,5-dihydroxypentan-3-yl)amino)-2,6-naphthyridin-3-yl)cyclohexane-1-carboxamide], the IC50 in assay [1] was above 10000 nM; in assay [2] it was 15 nM; in assay [3], above 10000 nM; in assay [4], 3370 nM; in assay [5] it was above 1000 nM.

`CC(=O)N[C@@H]1CCC[C@H](C(=O)Nc2cc3c(N4CC[C@@H](O)C4)nc(C#N)cc3cn2)C1` [Compound 19, (1S,3R)-3-acetamido-N-(7-cyano-5-((R)-3-hydroxypyrrolidin-1-yl)-2,6-naphthyridin-3-yl)cyclohexane-1-carboxamide]: the IC50 in assay [1] is 6080 nM; in assay [2], 26 nM; in assay [3] it was 1470 nM; in assay [4], 2370 nM; in assay [5], above 1000 nM.

With `CC(=O)N[C@@H]1CCC[C@H](C(=O)Nc2cc3c(N4CC[C@@H](N)C4)nc(C#N)cc3cn2)C1` [Compound 20, (1S,3R)-3-acetamido-N-(5-((R)-3-aminopyrrolidin-1-yl)-7-cyano-2,6-naphthyridin-3-yl)cyclohexane-1-carboxamide], the IC50 in assay [1] is 4320 nM; in assay [2] it was 11 nM; in assay [3], 1750 nM; in assay [4], 2150 nM; in assay [5], above 1000 nM.

In the case of `CC(=O)N[C@@H]1CCC[C@H](C(=O)Nc2cc3c(N4CC[C@@](C)(O)C4)nc(C#N)cc3cn2)C1` [Compound 22, (1S,3R)-3-acetamido-N-(7-cyano-5-((R)-3-hydroxy-3-methylpyrrolidin-1-yl)-2,6-naphthyridin-3-yl)cyclohexane-1-carboxamide], the IC50 in assay [1] is above 10000 nM; in assay [2] it was 17 nM; in assay [3] it was 1910 nM; in assay [4] it was 4510 nM; in assay [5], 400 to 1000 nM.

For `CC(C)Nc1nc(C#N)cc2cnc(N[C@H]3CCC[C@@H](O)C3)cc12` [Compound 41, 7-(((1S,3R)-3-hydroxycyclohexyl)amino)-1-(isopropylamino)-2,6-naphthyridine-3-carbonitrile], the IC50 was 6 nM in assay [2], 90 nM in assay [3] and above 1000 nM in assay [5].

As to `CC(C)Nc1nc(C#N)cc2cnc(N[C@H]3CCC(=O)NC3)nc12` [Compound 106, (S)-8-(isopropylamino)-2-((6-oxopiperidin-3-yl)amino)pyrido[3,4-d]pyrimidine-6-carbonitrile], the IC50 in assay [6] is 26 nM; in assay [2] it was 4 nM; in assay [3], 29 nM; in assay [5], 400 to 1000 nM.

Consider `N#Cc1cc2cnc(N[C@H]3CCCNC3)cc2c(C2CCCCC2)n1` [Compound 193, (S)-1-cyclohexyl-7-(piperidin-3-ylamino)-2,6-naphthyridine-3-carbonitrile], for which the IC50 in assay [6] was 398 nM; in assay [2], 5 nM; in assay [4], 679 nM; in assay [5] it was 400 to 1000 nM.

`CC(C)Oc1nc(C#N)cc2cnc(N[C@H]3C[C@@H](N)C3)cc12` [Compound 195, 7-(((1s,3s)-3-aminocyclobutyl)amino)-1-isopropoxy-2,6-naphthyridine-3-carbonitrile]: the IC50 was 14 nM in assay [6], 2 nM in assay [2], 540 nM in assay [4] and 400 to 1000 nM in assay [5].

For the compound `N#Cc1cc2cnc(N[C@H]3CCCNC3)cc2c(OC2CC2)n1` [Compound 197, (S)-1-cyclopropoxy-7-(piperidin-3-ylamino)-2,6-naphthyridine-3-carbonitrile], the IC50 is 14 nM in assay [2] and above 1000 nM in assay [5].

`CCNc1nc(C#N)cc2cnc(N[C@H]3C[C@](C)(N)C3)cc12` [Compound 208, 7-(((1r,3r)-3-amino-3-methylcyclobutyl)amino)-1-(ethylamino)-2,6-naphthyridine-3-carbonitrile]: the values for the IC50 in assay [2] and in assay [5] were 7 nM and 400 to 1000 nM, respectively.

Turning to `C[C@]1(N)C[C@H](Nc2cc3c(NC4CC4)nc(C#N)cc3cn2)C1` [Compound 210, 7-((trans)-3-amino-3-methylcyclobutyl)amino-1-(cyclopropylamine)-2,6-naphthyridine-3-carbonitrile], the IC50 is 12 nM in assay [2] and 400 to 1000 nM in assay [5].

As to `CC(C)(C)Nc1nc(C(F)F)cc2cnc(N[C@H]3[C@@H]4CNC[C@@H]43)nc12` [Compound C4, N^2-((1R,5S,6s)-3-azabicyclo[3.1.0]hexan-6-yl)-N^8-(tert-butyl)-6-(difluoromethyl)pyrido[3,4-d]pyrimidine-2,8-diamine], the values for the IC50 in assay [2] and in assay [5] were 9 nM and 400 to 1000 nM, respectively.

In the case of `CC(C)Nc1nc(C#N)cc2cnc(N[C@@H]3CCCCNC3)nc12` [Compound C5, (R)-2-(azepan-3-ylamino)-8-(isopropylamino)pyrido[3,4-d]pyrimidine-6-carbonitrile], the values for the IC50 in assay [2] and in assay [5] were 50 nM and 400 to 1000 nM, respectively.

In the case of `CC(C)Nc1nc(C#N)cc2cnc(N[C@]3(C)C[C@@H](O)C3)nc12` [Compound C10, 2-(((1r,3r)-3-hydroxy-1-methylcyclobutyl)amino)-8-(isopropylamino)pyrido[3,4-d]pyrimidine-6-carbonitrile], the figures for the IC50 in assay [2] and in assay [5] were 8 nM and above 1000 nM, respectively.

For the compound `CC(C)(C)Nc1nc(C(N)=O)cc2cnc(N[C@H]3C[C@H](N)C3)nc12` [Compound C19, 2-(((1r,3r)-3-aminocyclobutyl)amino)-8-(tert-butylamino)pyrido[3,4-d]pyrimidine-6-carboxamide], the IC50 in assay [2] is 10 nM; in assay [5], 400 to 1000 nM.

For the compound `CC(C)Nc1nc(C#N)cc2cnc(N[C@]3(C)C[C@@H](N)C3)nc12` [Compound C27, 2-(((1r,3r)-3-amino-1-methylcyclobutyl)amino)-8-(isopropylamino)pyrido[3,4-d]pyrimidine-6-carbonitrile], the values for the IC50 in assay [2] and in assay [5] were 19 nM and above 1000 nM, respectively.

`CC(C)Nc1nc(C#N)cc2cnc(N[C@H]3C[C@@H](CO)C3)nc12` [Compound C29, 2-(((1s,3s)-3-(hydroxymethyl)cyclobutyl)amino)-8-(isopropylamino)pyrido[3,4-d]pyrimidine-6-carbonitrile]: the IC50 is 51 nM in assay [6], 3 nM in assay [2], 35 nM in assay [4] and 400 to 1000 nM in assay [5].

On to `CC(=O)N1CCN([C@H]2C[C@@H](Nc3ncc4cc(C#N)nc(NC(C)C)c4n3)C2)CC1` [Compound C33, 2-(((1s,3s)-3-(4-acetylpiperazin-1-yl)cyclobutyl)amino)-8-(isopropylamino)pyrido[3,4-d]pyrimidine-6-carbonitrile], for which the IC50 was 19 nM in assay [2] and above 1000 nM in assay [5].
